This data set is described as follows: Solubility of V3 peptides. The class given is physicochemical. The conditions noted are these: for solubility: 10 percent DMSO in water, estimated by turbidity, read-out: solubility in 10 percent DMSO solution at pH=7.4. Here is the method: To obtain cyclic peptides, solutions of the R2 and R2(313-4PM/HI, 325Q/D) V3 35-mers in dimethylsulfoxide (DMSO), 10 mg/ml, were diluted 1:10 in water at room temperature or 37° C. and the pH was adjusted to 8.5 with ammonium hydroxide. These solutions were aerated by bubbling air through the solutions for periods ≧1 hour. Following aeration, the pH was adjusted to 7.4 using hydrochloric acid. A portion of the R2 35-mer peptide precipitated during these procedures. To obtain an approximate quantitation of the amount of R2 V3 35-mer that remained in solution, the turbidity of the suspension was determined at 480 nm wavelength visible light using a spectrophotometer. The spectrophotometer was blanked with a solution of 10 percent DMSO in water, and a standard curve was produced using slurries of known amounts of the 35-mer peptide suspended in water. The amount of precipitate estimated by turbidity was subtracted from the amount of peptide added at the beginning of the preparation procedure to estimate the amount remaining in solution. […] Peptides were sterilized by passage through 0.22μ pore size filters prior to use.

The values below come from patent US7608688B2, “HIV-1 protein associated with broadly reactive neutralizing antibody response” (The Henry M. Jackson Foundation for the Advancement of …, priority 1998, dated 2009).

Converted amounts (≈) assume the structure as drawn. Like-named read-outs stand apart in the source and are kept apart here. Bridge positions count the residues as written; N and C are the ends. Peptide text beside a SMILES is read from it.

In the case of “CSRPNNNTRKSIPMGPGRAFYTTGQIIGDIRQAHC (Human immunodeficiency virus type 1; R2 strain V3 domain) [R2 V3 35-mer]”, the “solubility in water” value (water) is listed as “insoluble in water”.
Regarding `CC[C@H](C)[C@@H]1NC(=O)[C@H](CC(=O)O)NC(=O)CNC(=O)[C@H]([C@@H](C)CC)NC(=O)[C@H]([C@@H](C)CC)NC(=O)[C@H](CCC(N)=O)NC(=O)CNC(=O)[C@H]([C@@H](C)O)NC(=O)[C@H]([C@@H](C)O)NC(=O)[C@H](Cc2ccc(O)cc2)NC(=O)[C@H](Cc2ccccc2)NC(=O)[C@H](C)NC(=O)[C@H](CCCNC(=N)N)NC(=O)CNC(=O)[C@@H]2CCCN2C(=O)CNC(=O)[C@H](CCSC)NC(=O)[C@@H]2CCCN2C(=O)[C@H]([C@@H](C)CC)NC(=O)[C@H](CO)NC(=O)[C@H](CCCCN)NC(=O)[C@H](CCCNC(=N)N)NC(=O)[C@H]([C@@H](C)O)NC(=O)[C@H](CC(N)=O)NC(=O)[C@H](CC(N)=O)NC(=O)[C@H](CC(N)=O)NC(=O)[C@@H]2CCCN2C(=O)[C@H](CCCNC(=N)N)NC(=O)[C@H](CO)NC(=O)[C@@H](N)CSSC[C@@H](C(=O)O)NC(=O)[C@H](Cc2c[nH]cn2)NC(=O)[C@H](C)NC(=O)[C@H](CCC(N)=O)NC(=O)[C@H](CCCNC(=N)N)NC1=O` [cyclic 35-mer R2 V3 peptide] (H-CSRPNNNTRKSIPMGPGRAFYTTGQIIGDIRQAHC-OH; disulfide 1-35; N-terminus and C-terminus assumed), the solubility (in general, the concentration that dissolves in the medium under given conditions) by setting is: (pH 7.4, processed at 37° C.) 850 to 900 µg/mL (≈ 220 to 233 µM); (pH 7.4, processed at room temperature) 300 to 350 µg/mL (≈ 77.7 to 90.7 µM).
